Here are results for 11 compounds from patent EP4786487A1, “PEPTIDE” (Peptidream Inc, priority 2023, dated 2025).

The structures appear in SMILES notation. Starred links: 1 amine or outer side, 2 acyl side, 3 side chain; linkers in the order of their positions; H or OH if unused. Positions of bridges follow the written chain, without caps; N, C: chain ends. Non-standard residues stand in square brackets, D forms with d. Residues, ends and D or L forms follow the SMILES beside them. Phe(3-OCH2COOH) = N[C@@H](Cc1cccc(OCC(=O)O)c1)C(=O)O; Phe(4-COOH) = N[C@@H](Cc1ccc(C(=O)O)cc1)C(=O)O; Gly(decyl) = CCCCCCCCCC[C@H](N)C(=O)O; Gly(N(CH2)3COOH) = O=C(O)CCCNCC(=O)O; Gly(octyl) = CCCCCCCC[C@H](N)C(=O)O; X1 = CCCCCCC[C@H](N[*:1])C(=O)[*:2]; NMeF = CN[C@@H](Cc1ccccc1)C(=O)O; Aoc(2) = CCCCCC[C@H](N)C(=O)O; Ahp(2) = CCCCC[C@H](N)C(=O)O; NMeA = CN[C@@H](C)C(=O)O; Sar = CNCC(=O)O

Holding throughout (format): cell-based
The target in assay [1] is T1, Myostatin (Homo sapiens, UniProt O14793).
T1 construct: active myostatin (also called mature myostatin) is a homodimer consisting of two C-terminal growth factor domains; purchased R&D systems 788-G8/CF
T1 sequence (O14793 267-375): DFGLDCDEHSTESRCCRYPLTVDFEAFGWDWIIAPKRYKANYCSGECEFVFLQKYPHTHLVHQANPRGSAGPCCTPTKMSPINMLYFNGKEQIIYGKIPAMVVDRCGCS
Briefly: Reporter gene assay for myostatin signaling in HepG2 cell line, Evaluation Procedure (1), myostatin inhibition. Conditions: Method A: Myostatin 10 ng/mL; read-out: IC50 (Luciferase) Myostatin HepG2. In short, it runs like this:
(§1)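 HepG2 cells transfected with pGL3(CAGA)12-luciferase reporter, serum-starved in 0.1% BSA medium, then stimulated with myostatin or GDF-11 plus 4-fold peptide dilutions (0.006–100 nmol/L for myostatin, 0.12–2000 nmol/L for GDF-11) for 20–24 h at 37 °C. Luminescence read with One-Glo; IC50 calculated.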
Background: Reporter assays use an easily measured gene product as a stand-in for the process of interest.

Assay [2] has as its system Myostatin. The description is as above. Conditions: Method A; GDF-11 IC50 versus Myostatin IC50. In a few lines:
as §1

Assay [3] has as its target T2, GDF-11 (Homo sapiens, UniProt O95390).
T2 construct: purchased R&D systems 1958-GD-G8/CF
T2 sequence (O95390 299-407): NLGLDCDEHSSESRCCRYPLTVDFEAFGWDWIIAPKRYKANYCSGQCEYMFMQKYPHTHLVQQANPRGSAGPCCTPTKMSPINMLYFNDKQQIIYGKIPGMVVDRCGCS
Put plainly: Reporter gene assay for myostatin signaling in HepG2 cell line, Evaluation Procedure (1), GDF-11 inhibition. Conditions: Method A: GDF-11 10 ng/mL; read-out: IC50 (Luciferase) GDF-11 HepG2. In short, it runs like this:
as §1

For orientation: IC50 means the midpoint of a concentration-inhibition curve.

For the compound `CCCCCCC[C@@H]1NC(=O)[C@H](Cc2ccccc2)N(C)C(=O)[C@H](CCCNC(=N)N)NC(=O)[C@H](Cc2ccc(C(=O)O)cc2)NC(=O)[C@H](Cc2ccc(O)cc2)NC(=O)CN(C)C(=O)[C@H]([C@@H](C)CC)NC(=O)[C@H](Cc2ccccc2)N(C)C(=O)[C@H](Cc2ccc(O)cc2)NC(=O)[C@H](Cc2c[nH]c3ccccc23)NC(=O)[C@H](C)NC(=O)[C@H](C)NC(=O)CSC[C@H](C(=O)O)NC(=O)[C@H](Cc2ccccc2)N(C)C(=O)[C@H](C)N(C)C1=O` [Myostatin_99_v193] ({CH2CO}-AAWY[NMeF]I[Sar]Y[Phe(4-COOH)]R[NMeF][X1][NMeA][NMeF][dC]-OH; thioether N-15), the IC50 in assay [1] amounted to 1 nM; in assay [3], 57 nM. In assay [2], the Selectivity was found to be 57.

As to `CCCCCCC[C@@H]1NC(=O)[C@H](Cc2ccccc2)N(C)C(=O)[C@H](CCCNC(=N)N)NC(=O)[C@H](Cc2ccc(C(=O)O)cc2)NC(=O)[C@H](Cc2cccc(OCC(=O)O)c2)NC(=O)[C@H](C)N(C)C(=O)[C@H]([C@@H](C)CC)NC(=O)[C@H](Cc2ccccc2)N(C)C(=O)[C@H](Cc2ccc(O)cc2)NC(=O)[C@H](Cc2c[nH]c3ccccc23)NC(=O)[C@H](C)NC(=O)[C@H](C)NC(=O)CSC[C@H](C(=O)O)NC(=O)[C@H](Cc2ccccc2)N(C)C(=O)[C@H](C)N(C)C1=O` [Myostatin_99_v194] ({CH2CO}-AAWY[NMeF]I[NMeA][Phe(3-OCH2COOH)][Phe(4-COOH)]R[NMeF][X1][NMeA][NMeF][dC]-OH; thioether N-15), the IC50 was 1.2 nM in assay [1] and 139 nM in assay [3]. This compound registered a Selectivity in assay [2] of 116.

Take `CCCCCCC[C@@H]1NC(=O)[C@H](Cc2ccccc2)N(C)C(=O)[C@H](CCCNC(=N)N)NC(=O)[C@H](Cc2ccc(C(=O)O)cc2)NC(=O)[C@H](Cc2cccc(OCC(=O)O)c2)NC(=O)[C@H](C)N(C)C(=O)[C@H]([C@@H](C)CC)NC(=O)[C@H](Cc2ccccc2)N(C)C(=O)[C@H](Cc2ccc(O)cc2)NC(=O)[C@H](Cc2c[nH]c3ccccc23)NC(=O)[C@H](C)NC(=O)[C@H](C)N(C)C(=O)CSC[C@H](C(=O)O)NC(=O)[C@H](Cc2ccccc2)N(C)C(=O)[C@H](C)N(C)C1=O` [Myostatin_99_v195] ({CH2CO}-[NMeA]AWY[NMeF]I[NMeA][Phe(3-OCH2COOH)][Phe(4-COOH)]R[NMeF][X1][NMeA][NMeF][dC]-OH; thioether N-15): the IC50 in assay [1] came to 1.3 nM; in assay [3], 255 nM. In addition, the Selectivity in assay [2] is on record as 196.

Regarding `CCCCCCC[C@@H]1NC(=O)[C@H](Cc2ccccc2)N(C)C(=O)[C@H](CCCNC(=N)N)NC(=O)[C@H](Cc2ccc(C(=O)O)cc2)NC(=O)[C@H](Cc2cccc(OCC(=O)O)c2)NC(=O)[C@H](C)N(C)C(=O)[C@H]([C@@H](C)CC)NC(=O)[C@H](Cc2ccccc2)N(C)C(=O)[C@H](Cc2ccc(O)cc2)NC(=O)[C@H](Cc2c[nH]c3ccccc23)NC(=O)[C@H](C)NC(=O)CN(CCCC(=O)O)C(=O)CSC[C@H](C(N)=O)NC(=O)[C@H](Cc2ccccc2)N(C)C(=O)[C@H](C)N(C)C1=O` [Myostatin_99_v196] ({CH2CO}-[Gly(N(CH2)3COOH)]AWY[NMeF]I[NMeA][Phe(3-OCH2COOH)][Phe(4-COOH)]R[NMeF][X1][NMeA][NMeF][dC]-NH2; thioether N-15), the results for the IC50 in assay [1] and in assay [3] were 3.4 nM and 603 nM, respectively. Moreover, the Selectivity in assay [2] turned out to be 177.

For `CCCCCCC[C@@H]1NC(=O)[C@H](Cc2ccccc2)N(C)C(=O)[C@H](CCCNC(=N)N)NC(=O)[C@H](Cc2ccc(C(=O)O)cc2)NC(=O)[C@H](Cc2cccc(OCC(=O)O)c2)NC(=O)[C@H](C)N(C)C(=O)[C@H]([C@@H](C)CC)NC(=O)[C@H](Cc2ccccc2)N(C)C(=O)[C@H](Cc2ccc(O)cc2)NC(=O)[C@H](Cc2c[nH]c3ccccc23)NC(=O)[C@H](CO)NC(=O)[C@H](C)NC(=O)CSC[C@H](C(=O)O)NC(=O)[C@H](Cc2ccccc2)N(C)C(=O)[C@H](C)N(C)C1=O` [Myostatin_99_v197] ({CH2CO}-ASWY[NMeF]I[NMeA][Phe(3-OCH2COOH)][Phe(4-COOH)]R[NMeF][X1][NMeA][NMeF][dC]-OH; thioether N-15), the half-maximal inhibitory concentration (IC50) was found to be 3.4 nM in assay [1] and 438 nM in assay [3]. This compound also came in with a Selectivity in assay [2] of 129.

Consider `CCCCCCCCCC[C@@H]1NC(=O)[C@H](Cc2ccccc2)N(C)C(=O)[C@H](CCCNC(=N)N)NC(=O)[C@H](Cc2ccc(C(=O)O)cc2)NC(=O)[C@H](Cc2cccc(OCC(=O)O)c2)NC(=O)[C@H](C)N(C)C(=O)[C@H]([C@@H](C)CC)NC(=O)[C@H](Cc2ccccc2)N(C)C(=O)[C@H](Cc2ccc(O)cc2)NC(=O)[C@H](Cc2c[nH]c3ccccc23)NC(=O)[C@H](C)NC(=O)CN(CCCC(=O)O)C(=O)CSC[C@H](C(=O)O)NC(=O)[C@H](Cc2ccccc2)N(C)C(=O)[C@H](C)N(C)C1=O` [Myostatin_99_v198] ({CH2CO}-[Gly(N(CH2)3COOH)]AWY[NMeF]I[NMeA][Phe(3-OCH2COOH)][Phe(4-COOH)]R[NMeF][Gly(decyl)][NMeA][NMeF][dC]-OH; thioether N-15), for which the values for the IC50 in assay [1] and in assay [3] were 0.7 nM and 90 nM, respectively. In assay [2], the Selectivity worked out at 123.

As to `CCCCCCCC[C@@H]1NC(=O)[C@H](Cc2ccccc2)N(C)C(=O)[C@H](CCCNC(=N)N)NC(=O)[C@H](Cc2ccc(C(=O)O)cc2)NC(=O)[C@H](Cc2cccc(OCC(=O)O)c2)NC(=O)[C@H](C)N(C)C(=O)[C@H]([C@@H](C)CC)NC(=O)[C@H](Cc2ccccc2)N(C)C(=O)[C@H](Cc2ccc(O)cc2)NC(=O)[C@H](Cc2c[nH]c3ccccc23)NC(=O)[C@H](C)NC(=O)CN(CCCC(=O)O)C(=O)CSC[C@H](C(=O)O)NC(=O)[C@H](Cc2ccccc2)N(C)C(=O)[C@H](C)N(C)C1=O` [Myostatin_99_v199] ({CH2CO}-[Gly(N(CH2)3COOH)]AWY[NMeF]I[NMeA][Phe(3-OCH2COOH)][Phe(4-COOH)]R[NMeF][Gly(octyl)][NMeA][NMeF][dC]-OH; thioether N-15), the values for the IC50 in assay [1] and in assay [3] were 1.2 nM and 159 nM, respectively. In assay [2], this compound returned a Selectivity of 133.

For `CCCCCCCC[C@@H]1NC(=O)[C@H](Cc2ccccc2)N(C)C(=O)[C@H](CCCNC(=N)N)NC(=O)[C@H](Cc2ccc(C(=O)O)cc2)NC(=O)[C@H](Cc2cccc(OCC(=O)O)c2)NC(=O)CN(C)C(=O)[C@H]([C@@H](C)CC)NC(=O)[C@H](Cc2ccccc2)N(C)C(=O)[C@H](Cc2ccc(O)cc2)NC(=O)[C@H](Cc2c[nH]c3ccccc23)NC(=O)[C@H](C)NC(=O)CN(CCCC(=O)O)C(=O)CSC[C@H](C(=O)O)NC(=O)[C@H](Cc2ccccc2)N(C)C(=O)[C@H](C)N(C)C1=O` [Myostatin_99_v200] ({CH2CO}-[Gly(N(CH2)3COOH)]AWY[NMeF]I[Sar][Phe(3-OCH2COOH)][Phe(4-COOH)]R[NMeF][Gly(octyl)][NMeA][NMeF][dC]-OH; thioether N-15), the IC50 came to 1 nM in assay [1] and 233 nM in assay [3]. The compound also gave a Selectivity in assay [2] of 233.

In the case of `CCCCC[C@@H]1NC(=O)[C@H](Cc2ccccc2)N(C)C(=O)[C@H](CCCNC(=N)N)NC(=O)[C@H](Cc2ccc(C(=O)O)cc2)NC(=O)[C@H](Cc2cccc(OCC(=O)O)c2)NC(=O)CN(C)C(=O)[C@H]([C@@H](C)CC)NC(=O)[C@H](Cc2ccccc2)N(C)C(=O)[C@H](Cc2ccc(O)cc2)NC(=O)[C@H](Cc2c[nH]c3ccccc23)NC(=O)[C@H](C)NC(=O)[C@H](C)NC(=O)CSC[C@H](C(=O)O)NC(=O)[C@H](Cc2ccccc2)N(C)C(=O)[C@H](C)N(C)C1=O` [Myostatin_99_v201] ({CH2CO}-AAWY[NMeF]I[Sar][Phe(3-OCH2COOH)][Phe(4-COOH)]R[NMeF][Ahp(2)][NMeA][NMeF][dC]-OH; thioether N-15), the IC50 in assay [1] stood at 8.6 nM; in assay [3], 2260 nM. In assay [2], this compound came in with a Selectivity of 262.

`CCCCCC[C@@H]1NC(=O)[C@H](Cc2ccccc2)N(C)C(=O)[C@H](CCCNC(=N)N)NC(=O)[C@H](Cc2ccc(C(=O)O)cc2)NC(=O)[C@H](Cc2cccc(OCC(=O)O)c2)NC(=O)CN(C)C(=O)[C@H]([C@@H](C)CC)NC(=O)[C@H](Cc2ccccc2)N(C)C(=O)[C@H](Cc2ccc(O)cc2)NC(=O)[C@H](Cc2c[nH]c3ccccc23)NC(=O)[C@H](C)NC(=O)[C@H](C)NC(=O)CSC[C@H](C(=O)O)NC(=O)[C@H](Cc2ccccc2)N(C)C(=O)[C@H](C)N(C)C1=O` [Myostatin_99_v207] ({CH2CO}-AAWY[NMeF]I[Sar][Phe(3-OCH2COOH)][Phe(4-COOH)]R[NMeF][Aoc(2)][NMeA][NMeF][dC]-OH; thioether N-15): the IC50 in assay [1] was 3.5 nM; in assay [3] it was 270 nM. In assay [2], the Selectivity is recorded as 77.

As to `CCCCCCC[C@@H]1NC(=O)[C@H](Cc2ccccc2)N(C)C(=O)[C@H](CCCNC(=N)N)NC(=O)[C@H](Cc2ccc(C(=O)O)cc2)NC(=O)[C@H](Cc2cccc(OCC(=O)O)c2)NC(=O)CN(C)C(=O)[C@H]([C@@H](C)CC)NC(=O)[C@H](Cc2ccccc2)NC(=O)[C@H](Cc2ccc(O)cc2)NC(=O)[C@H](Cc2c[nH]c3ccccc23)NC(=O)[C@H](C)NC(=O)[C@H](C)NC(=O)CSC[C@H](C(=O)O)NC(=O)[C@H](Cc2ccccc2)N(C)C(=O)[C@H](C)N(C)C1=O` [Myostatin_99_v209] ({CH2CO}-AAWYFI[Sar][Phe(3-OCH2COOH)][Phe(4-COOH)]R[NMeF][X1][NMeA][NMeF][dC]-OH; thioether N-15), the IC50 amounted to 5.4 nM in assay [1] and 794 nM in assay [3]. For the same compound, in assay [2], the Selectivity is reported as 147.
